These results are taken from patent US7081260B2, “α-Glucosidase inhibitors from a natural source” (Council of Scientific and Industrial Research, priority 2002, dated 2006).

≈ marks a conversion by molar mass, not a printed value.

One test has as its system Aedus Eriseratus larvae. The following applies: against Aedus Eriseratus larvae; cited from earlier work.
Test [1] deals with p. gossipiella, H. virescens, H. ze. Conditions: against p. gossipiella; cited from earlier work.
For test [2], the system named is Moth fly (Telmatoscopus Albipunctatus). Conditions: against Moth fly (Telmatoscopus Albipunctatus); cited from earlier work.
In the next test the test system is 8 Mycobacterium stains. Conditions: against 8 Mycobacterium stains; cited from earlier work.
The target of test [3] is yeast α-glucosidase enzyme. Nature of the test: α-glucosidase inhibitory assay by the chromogenic method. The test is classed as biochemical. The following applies: p-nitrophenyl-α-D-glucopyranoside substrate; for IC50 value: pH 7.00; for α-glucosidase inhibitory activity up to: pH 7.00, maximum inhibition. The protocol: Determination of α-Glucosidase Inhibition Activity of Compounds Isolated From P. longum:
The α-glucosidase inhibitory assay was done by the chromogenic method. In brief 10 μl of test compounds dissolved in DMSO (5 mg/ml and subsequent dilutions) were incubated for 5 min. with 5 μl of yeast α-glucosidase enzyme prepared in 100 mM phosphate buffer (pH 7.00). After 5 minutes of incubation, […] of 5 mM substrate (p-nitrophenyl-α-D-glucopyranoside prepared in the same buffer) were added. The pre-substrate and 5-min post-substrate addition absorbances were recorded at 405 nm spectrophotometrically. The increases in absorbance from pre-substrate addition to post substrate reaction were obtained. Percent inhibition was calculated by (1-O.D test/O.D control)×100 and inhibitory concentration 50% (IC50) was calculated by applying suitable regression analysis.

The test system of test [4] is Leplinotarsa dectmlineata. Conditions: against Leplinotarsa dectmlineata; cited from earlier work.
A further test has as its system Cladosporiumsphaerosperm. Conditions: against Cladosporiumsphaerosperm; cited from earlier work.
The test system of the next test is Musca Domestica. The following applies: against Musca Domestica; cited from earlier work.
The test system of another test is Collosobruchus chinenses. The following applies: against Collosobruchus chinenses; cited from earlier work.
The next test has as its system Toxocara canis. Conditions: against Toxocara canis; cited from earlier work.
The conditions of test [5]: in vivo; cited from earlier work.

For the molecule `CCCCCC=CC=CC(=O)NCC(C)C` [pellitorine, N-(2-methylpropyl)-2,4-decadienamide], the “BIOLOGICAL ACTIVITY: larvicida activity” value with Aedus Eriseratus larvae is “Larvicida activity against”. Further, the “BIOLOGICAL ACTIVITY: insect growth inhibitor” value in [1] is reported as “Insectgrowth inhibitor against”. Besides, the “BIOLOGICAL ACTIVITY: insecticidal” value is listed as “Insecticidal activities against” in [2], “Insecticidal against Musca” with Musca Domestica and “Insecticidal against” in the test with Collosobruchus chinenses. Also, the “BIOLOGICAL ACTIVITY: antituberculotic” value in the test with 8 Mycobacterium stains was “Antituberculotic against 8”. In [3], this molecule displayed an IC50 value of 34.43 µg/mL (≈ 154 µM). For the same molecule, the “α-glucosidase inhibitory activity up to” value in test [3] was “up to 86.03%”. The “BIOLOGICAL ACTIVITY: ovicidal” value in test [4] is “Ovicidal against Leplinotarsa”. For the same molecule, in the test on Cladosporiumsphaerosperm, the “BIOLOGICAL ACTIVITY: antifungal” value was “Antifungal against”.

With `c1cc2c(cc1[C@H]1OC[C@H]3[C@@H]1CO[C@@H]3c1ccc3c(c1)OCO3)OCO2` [sesamin, 5,5-(tetrahydro-1H,3H-furo(3,4-e)furan-1,4-diyl)bis-1,3-benzodioxol], in test [3], the IC50 value was determined as 36.35 µg/mL (≈ 103 µM) and the “α-glucosidase inhibitory activity up to” value was “up to 76.18%”.

Regarding `CCCCCCCCCCC=Cc1ccc2c(c1)OCO2` [pipataline, 5-(1-dodecenyl)-1,3-benzodioxol], in [3], the IC50 value is 26.52 µg/mL (≈ 91.9 µM) and the “α-glucosidase inhibitory activity up to” value was “up to 77.45%”.

As for `CC(C)CNC(=O)/C=C/C=C/CCCCCC/C=C/c1ccc2c(c1)OCO2` [guineensine, 13-(1,3-benzodioxol-5-yl)-N(2-methylpropyl)-2,4,12-tri decatrienamide], in the test with Toxocara canis, the “BIOLOGICAL ACTIVITY: larvicidal” value was “Larvicidal against Toxocara”. Further, in test [3], the IC50 value worked out at 20.15 µg/mL (≈ 52.5 µM) and the “α-glucosidase inhibitory activity up to” value is reported as “up to 61.71%”. Further, the “BIOLOGICAL ACTIVITY: insecticidal activity” value in [5] is recorded as “Insecticidal activity”. Moreover, the “BIOLOGICAL ACTIVITY: insecticidal” value in the test with Collosobruchus chinenses was “Insectcidal against”.

As for `CC(C)CNC(=O)C=CC=CCCCCCCCCC=Cc1ccc2c(c1)OCO2` [brachystamide-B, 15-(1,3-benzodioxol-5-yl)-N(2-methylpropyl)-2,4,14-pentadecatrienamide], in [3], the IC50 value came out at 33.61 µg/mL (≈ 81.7 µM) and the “α-glucosidase inhibitory activity up to” value was “up to 73.90%”.
